Measured values as given in PubChem BioAssay (NCI).
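Interpolation was linear, between the two tested concentrations surrounding the appropriate level; five concentrations were tested over 48 hours in 96-well plates. Here, GI50 denotes the concentration required for 50% inhibition of growth. TGI marks complete inhibition of growth.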

What was measured:
Assay in all cases: NCI tumour cell line growth inhibition, 48 h
SNB-19 CNS = system: SNB-19 CNS
EKVX NSCLC = system: EKVX NSCLC
SK-MEL-2 melanoma = system: SK-MEL-2 melanoma
SR leukemia = system: SR leukemia
HL-60(TB) leukemia = system: HL-60(TB) leukemia
HOP-62 NSCLC = system: HOP-62 NSCLC
KM12 colon = system: KM12 colon
SK-MEL-5 melanoma = system: SK-MEL-5 melanoma
IGROV1 ovarian = system: IGROV1 ovarian
MDA-MB-435 = system: MDA-MB-435

| Structure (SMILES) | TGI (SNB-19 CNS) [µM] | TGI (EKVX NSCLC) [µM] | TGI (SK-MEL-2 melanoma) [µM] | TGI (SR leukemia) [µM] | TGI (HL-60(TB) leukemia) [µM] | TGI (HOP-62 NSCLC) [µM] | TGI (KM12 colon) [µM] | TGI (SK-MEL-5 melanoma) [µM] | TGI (IGROV1 ovarian) [µM] | GI50 (SNB-19 CNS) [µM] | GI50 (MDA-MB-435) [µM] | TGI (MDA-MB-435) [µM] | GI50 (EKVX NSCLC) [µM] | GI50 (SK-MEL-2 melanoma) [µM] | GI50 (HL-60(TB) leukemia) [µM] | GI50 (HOP-62 NSCLC) [µM] | GI50 (KM12 colon) [µM] | GI50 (SK-MEL-5 melanoma) [µM] | GI50 (IGROV1 ovarian) [µM] |
| --- | --- | --- | --- | --- | --- | --- | --- | --- | --- | --- | --- | --- | --- | --- | --- | --- | --- | --- | --- |
| CN(C)C(=O)c1ccc([N+](=O)[O-])cc1 | > 100 | > 100 | > 100 | > 100 | > 100 | > 100 | > 100 | > 100 | > 100 |  |  |  |  |  |  |  |  |  |  |
| CCc1cccc(C)c1NC(=O)C1=C(C)NC(C)=C(C(=O)Nc2c(C)cccc2CC)C1c1ccc2c(c1)OCO2 | 96.4 | 58.6 | 29.6 |  | 57.1 | 36.9 | 30.9 | 31.9 | 78.6 |  |  |  |  |  |  |  |  |  |  |
| CC1(C)CC2CC(CC(C)(C)C2=O)C1=O | > 100 | > 100 | > 100 | > 100 | > 100 | > 100 | > 100 | > 100 | > 100 |  |  |  |  |  |  |  |  |  |  |
| COc1cccc(NC(=O)CC(=O)N2N=C(n3ccc4ccccc43)CC2c2ccccc2)c1 (configuration not stated) | > 100 | > 100 | > 100 |  | > 100 | > 100 | > 100 |  | > 100 |  |  |  |  |  |  |  |  |  |  |
| Cc1ccc(-c2csc(NC(=O)N3CCN(c4cc5c(cc4F)c(=O)c(C(=O)O)cn5C4CC4)CC3)n2)cc1 | > 100 | > 100 | 4.36 |  | 4.51 | > 100 | > 100 | 2.51 | > 100 | 0.398 | 2.06 | > 100 | 1.49 | 1.37 | 0.796 | 0.484 | 0.458 | 0.889 | 0.482 |
| CCCN(CCC)C(=O)C(=O)c1c(N)[nH]n(-c2ccccc2)c1=O | > 100 | > 100 | > 100 |  | > 100 |  | > 100 | > 100 | > 100 |  |  |  |  |  |  |  |  |  |  |
| CCOC(=O)/C(O)=C(/C(=O)OC)c1ccc(Cl)cc1 | > 100 | > 100 | > 100 |  |  | > 100 | > 100 | > 100 | > 100 |  |  |  |  |  |  |  |  |  |  |
| COc1cc(/C=C/C(=O)c2ccc(F)cc2)ccc1OCCCN1CCN(CC(=O)Nc2ccc(Cl)cc2C(=O)c2ccccc2Cl)CC1 | 49.2 | > 100 | 32.1 |  | 25.9 | 31.9 | 22.2 | 14.7 | 41.6 | 18.9 | 8.19 | 22.5 | 31.3 | 12.6 | 4.23 | 15.5 | 5.58 | 3.42 | 6.17 |
| O=[N+]([O-])c1cc(Cl)cnc1Br | 26.8 | 15.2 |  |  | 9.11 | 35.1 | 19 | 10.1 | 8.32 |  |  | 5.4 |  |  |  |  |  |  |  |
| COc1cc([N+](=O)[O-])c(OC)cc1-c1nc2sccn2c1/C=N/N=C(N)N | > 100 | 73.6 | > 100 |  |  | 46.9 | > 100 | > 100 | 50 | 8.52 | 15.5 | 52.3 | 25.9 | 30.9 |  | 13.6 | 4.36 | 33.7 | 10.4 |
| COc1cccc(-c2cc3c4c(nc5ccccc53)C(=O)c3cccnc3-c4n2)c1 | 11.2 | 14.2 | 4.16 |  |  | 12.3 | 3.75 | 1.76 | 14.4 | 4.2 | 1.18 | 2.57 | 3.98 | 1.18 |  | 4.2 | 1.54 | 0.578 | 3.37 |
| COc1cccc(NC(=O)CC(=O)N2N=C(N3c4ccccc4Sc4ccccc43)CC2c2ccccc2)c1 (configuration not stated) | > 100 | > 100 |  | > 100 |  | > 100 | > 100 | > 100 | > 100 |  |  |  |  |  |  |  |  |  |  |
| O=C(O)C(CS)NCc1c2ccccc2nc2ccccc12 (configuration not stated) | > 100 | > 100 | > 100 | 97.3 | 62 |  | > 100 |  | > 100 |  |  |  |  |  |  |  |  |  |  |
| CNC(=O)OCc1c2ccncc2c(C)c2c1[nH]c1ccc(OC)cc12 | 1.93 | > 100 | 0.509 |  | 0.623 | 1.07 | > 100 |  | 4.56 |  |  |  |  |  |  |  |  |  |  |
| O=S(=O)(c1cccc2c(I)cccc12)N1CCCNCC1 | 42.8 | 39.7 | 33.6 |  | 43.4 | 34.4 | 33.9 | 25.2 | 31.4 | 20.9 | 17.7 | 35.6 | 19.8 | 16.7 | 14.2 | 16.5 | 16.3 | 8.71 | 15.8 |
